In patent EP1832576A1, “4-Biarylyl-1-phenolyzetidin-2-ones” (Microbia Inc., priority 2003, dated 2005) one finds inhibition data, which are given here for seven compounds.

For this assay, the system named is cholesterol absorption from the intestine. The assay is described as follows: In Vivo Assay of Hypolipidemic Agents using the Rat Cholesterol Absorption Model. To be noted: po; for inhibition at 1 mg/kg: 3H levels in serum three hours after 3H-cholesterol, versus vehicle only control. More on the design: species or system Female Sprague-Dawley rats. An outline of the steps: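 Fasted female Sprague-Dawley rats (150–250 g, 4–6/group) received compound orally in olive oil or vehicle. Thirty minutes later they were given 3–5 µCi ^3H-cholesterol orally in olive oil, and serum ^3H was counted at 3 h. Percent inhibition versus vehicle control is at a fixed dose; ED50 is the dose giving half-maximal effect on serum ^3H.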

A word on the inhibition: it is the relative decrease from the control value, in per cent. A low value points to a weak effect.

`O=C1[C@H](CC[C@H](O)c2ccc(F)cc2)[C@@H](c2ccc(-c3cccc([C@@H](O)[C@H]4OC(O)[C@H](O)[C@@H](O)[C@@H]4O)c3)cc2)N1c1ccccc1` (stereo partly drawn) [Example 72, (6R)-6-C-(4'-{(2S,3R)-3-[(3S)-3-(4-Fluorophenyl)-3-hydroxypropyl]-4-oxo-1-phenylazetidin-2-yl}biphenyl-3-yl)-D-glucopyranose] gave an inhibition at 0.3 mg/kg (Table 2, footnote 6, perorally, 0.3 mg/kg) of 27%.
Consider `O=C1[C@H](CC[C@H](O)c2ccc(F)cc2)[C@@H](c2ccc(-c3cccc(O)c3)cc2)N1c1ccccc1` [Example 57, (3R,4S)-3-[(3S)-3-(4-Fluorophenyl)-3-hydroxypropyl]-4-(3'-hydroxybiphenyl-4-yl)-1-phenylazetidin-2-one], for which the inhibition at 1 mg/kg (Table 2, perorally) amounted to 73%.
Take `COc1cc(-c2ccc([C@@H]3[C@@H](CC[C@H](O)c4ccc(F)cc4)C(=O)N3c3ccc(F)cc3)cc2)cc(OC)c1OC` [Example 9, (3R,4S)-1-(4-fluorophenyl)-3-[(3S)-3-(4-fluorophenyl)-3-hydroxypropyl]-4-(3',4',5'-trimethoxybiphenyl-4-yl)azetidin-2-one]: the inhibition at 1 mg/kg (Table 1, perorally) came to 40%.
For the setting “Table 2, perorally”, `O=C1[C@H](CC[C@H](O)c2ccc(F)cc2)[C@@H](c2ccc(-c3cccc(O)c3)cc2O)N1c1ccccc1` [Example 42, (3R,4S)-4-(3,3'-Dihydroxybiphenyl-4-yl)-3-[(3S)-3-(4-fluorophenyl)-3-hydroxypropyl]-1-phenylazetidin-2-one] had an inhibition at 1 mg/kg of 87%.
`O=C1[C@H](CC[C@H](O)c2ccc(F)cc2)[C@@H](c2ccc(-c3cccc(O)c3)s2)N1c1ccccc1` [Example 50, (3R,4S)-3-[(3S)-3-(4-Fluorophenyl)-3-hydroxypropyl]-4-[5-(3-hydroxyphenyl)-2-thienyl]-1-phenylazetidin-2-one] returned an inhibition at 1 mg/kg (Table 2, perorally) of 27%.
Still for that read-out and setting: the result for `O=C1[C@H](CC[C@H](O)c2ccc(F)cc2)[C@@H](c2cccc(-c3cccc(O)c3)c2)N1c1ccc(F)cc1` [Example 44, (3R,4S)-1-(4-fluorophenyl)-3-[(3S)-3-(4-fluorophenyl)-3-hydroxypropyl]-4-(3'-hydroxybiphenyl-3-yl)azetidin-2-one] reads 24%.
The compound `O=C1[C@H](CC[C@H](O)c2ccc(F)cc2)[C@@H](c2ccc(-c3cccc([C@@H]4O[C@H](CO)[C@@H](O)[C@H](O)[C@H]4O)c3)cc2O)N1c1ccccc1` [Example 65, (1S)-1,5-anhydro-1-(4'-{(2S,3R)-3-[(3S)-3-(4-fluorophenyl)-3-hydroxypropyl]-4-oxo-1-phenylazetidin-2-yl}-3'-hydroxybiphenyl-3-yl)-D-glucitol] displayed an inhibition at 0.1 mg/kg (Table 2, footnote 5, perorally, 0.1 mg/kg) of 60%.
